Test results from patent US10509041B2, “Glucose derivative, and cell imaging method and imaging agent using said derivative” (HIROSAKI UNIVERSITY, priority 2014, dated 2019).
Where “and” joins values, the source holds several entries; their conditions need not be identical. Equal values may be shown once.

Tested on: mouse insulinoma cells (MIN6)
Assay: Increase in fluorescence intensity (uptake) after administration of fluorescent glucose derivative to MIN6 cells, influence of cytochalasin B (CB) or phloretin (PHT), fluorescence microplate reader
Format: cell-based
Conditions: CDG 100 μM, 37° C. 5 minutes; CB 10 μM; MIN6 culture day 13; average, two independent experiments
Protocol: Increase in fluorescence intensity caused by the administration of CDG, and the influence of a glucose transporter (GLUT) inhibitor CB thereon were confirmed by targeting MIN6 cells.
A 96-well clear-bottom plate having wells of 8 rows (A to H) and 12 columns (1 to 12) (μClear-PLATE, Greiner Bio-One, BLACK) was used in measurement. A culture solution containing MIN6 cells suspended at a density of 60×10^4 cells/mL was added dropwise at 10 μL/well to the central portion of the well, and then, the plate was left standing for 40 minutes in an incubator for fixation. The cells were cultured by the addition of a culture solution at 200 μL/well (6000 cells/well). For layout, the cells were seeded to wells B to H on the third column and wells A to G on the fifth column. Medium replacement was performed by replacing half the amount with a fresh one once every two days at 0 to 4 DIV (days in vitro) and every day at 5 DIV or later. […]
CDG and 2-NBDG were each independently administered to the wells on the third and fifth columns using an 8-channel pipette such that these derivatives were alternately placed on the same plate. Before the administration, the autofluorescence of each well was measured in advance using a fluorescence microplate reader (Flex Station, Molecular Devices, LLC). […] The measurement was conducted at Bottom Read, Averaging 3, and Photomultiplier sensitivity high. […]

O=c1ccc2ccc(NC3C(O)OC(CO)[C@@H](O)[C@@H]3O)cc2o1 (stereo partly drawn) [CDG, 2-deoxy-2-(2-oxo-2H-chromen-7-yl)amino-D-glucose]
fluorescence intensity in the presence of CB relative to the absence of CB: 47.3% and 42.9%
